Experimental data reported in PubChem BioAssay (NCI).
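A five-concentration, 48-hour dose response in 96-well plates underlies each endpoint, interpolated linearly between surrounding concentrations. TGI is the concentration that stops growth completely.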

Each compound was assayed on OVCAR-5 ovarian (assay: NCI anticancer screen, dose series, 48 h).

Row | SMILES | TGI [µM]
1 | CCCCCC(C[N+]1(C)CCOCC1)C(=O)/C=C/c1ccccc1 (stereo not given) | 37.3
2 | COc1ccc2c(c1C)C(=O)C(O)(CC=C(C)C)O2 (stereo not given) | > 100
3 | CCOC(=O)C1(C(=O)OCC)CN(CC)CN(c2ccccc2)C1 | 34.9
4 | Cc1cccc2c1[C@]13OC(C)[C@]4(C)CC5OC(=O)[C@@]1(C)[C@@H]5[C@]34C(=O)O2 (stereo not given in full) | > 100
5 | CC(=O)OCC1OC(Nc2ncc(-c3ccc(C)cc3)s2)C(OC(C)=O)C(OC(C)=O)C1OC(C)=O (stereo not given) | > 100

The compounds below were run on PC-3 prostate (assay: NCI anticancer screen, dose series, 48 h).

Row | SMILES | TGI [µM]
6 | CSC1=C(SC)SC(=C2SC3=C(SC(=C4SCCS4)S3)S2)S1 | > 100
7 | CC(=O)Oc1ccccc1-c1cc2ccccc2oc1=O | > 100
8 | Cc1ccc2nc(-c3ccc(N)c(I)c3)sc2c1 | 60.6
9 | COc1ccc2c(c1)CC[C@@H]1[C@@H]2CC[C@]2(C)C(=O)/C(=C/c3ccc(OC)c(OC)c3)C[C@@H]12 | > 100
10 | Cn1ccc(C(=O)NCCOCCNC(=O)c2ccn(C)c(=O)c2O)c(O)c1=O | > 100
11 | CC1=C(Br)C(Br)=C(C)S1=O | 48.8
12 | C=CCN1C[C@H](C)N([C@H](c2ccc(C(=O)N(CC)CCO)cc2)c2cccc(OC)c2)C[C@H]1C | > 100
13 | CCC1OC2C(CC=C(C)C)=C3OC(C)(O)C(C)(CC)C(OC(=O)c4ccccc4)C3=C3OC(=O)C=C1C32 (stereo not given) | > 100
14 | CN1CCOC1(C)CO (stereo not given) | > 100
15 | CC(C)CC1[C@@H](OCc2ccccc2)COS(=O)N1Cc1ccccc1 (stereo not given in full) | > 100
16 | CC(=O)OC1CC2c3cccc4c3C(CC2N(C)C1=O)CN4C(=O)c1ccccc1 (stereo not given) | 79.6
17 | COc1ccc2c3c1O[C@H]1C(O)CCC4(O)[C@@H](C2)NCC[C@]314 (stereo not given in full) | > 100
18 | CNC(=S)N/N=C(C)\C(=N/NC(=S)NC)c1ccccc1 | > 100
19 | O=C(O)c1nc(-c2ccccn2)c(-c2ccccn2)nc1C(=O)O | 20.9
20 | COc1ccc2c(c1C)C(=O)C(O)(CC=C(C)C)O2 (stereo not given) | > 100
21 | Cc1cccc2c1[C@]13OC(C)[C@]4(C)CC5OC(=O)[C@@]1(C)[C@@H]5[C@]34C(=O)O2 (stereo not given in full) | > 100

What follows are compounds tested on RXF 393 renal (assay: NCI anticancer screen, dose series, 48 h).

Row | SMILES | TGI [µM]
22 | Cc1ccc2c(c1CCCC(C)(C)O)C(=O)C(=O)C(C(C)C)=C2O | > 100
23 | O=C1C(Cl)C(c2ccccc2)N1n1cnc2ccccc2c1=O (stereo not given) | > 100
24 | CN(C)C(=O)OCOC(=O)N(C)C | > 100
25 | Cc1ccc2nc(-c3ccc(N)c(I)c3)sc2c1 | > 100
26 | O=C1NC(=O)C(CCO)(c2ccccc2)C(=O)N1 | > 100
27 | COc1ccc2c(c1)CC[C@@H]1[C@@H]2CC[C@]2(C)C(=O)/C(=C/c3ccc(OC)c(OC)c3)C[C@@H]12 | > 100
28 | C=CCn1c(=O)n(CC=C)c(=O)n(CC=C)c1=O | > 100
29 | CCCCN1C=CN2c3nc4cc(C)c(C)cc4n3C(C(=O)OC)=C(C(=O)OC)C12 (stereo not given) | > 100
30 | COC(=O)C(=C/c1ccc(OC)cc1)/C(C(=O)O)=C(/C)c1ccccc1 | > 100
31 | C=C1C(=O)O[C@H]2[C@H]1[C@@H](OC(=O)C=C(C)C)CC1=C[C@@H](C[C@@]3(C)O[C@@H]23)OC1=O | 3.82
32 | CCOC(=O)C(N=Nc1ccc(S(N)(=O)=O)cc1)C(C)=O (stereo not given) | > 100
33 | Cc1ccc(C2CC(c3ccco3)=NN2c2ccccc2)o1 (stereo not given) | > 100
34 | C/C(=C1/CCCC2(N=NCC2c2ccccc2)C1=O)c1ccccc1 (stereo not given) | 79.5
35 | CN1CCOC1(C)CO (stereo not given) | > 100
36 | CCN1CCN(c2ccc(Nc3ccnc4ccc5nn(C)nc5c34)cc2)CC1 | 22.5
37 | OCC1OC(n2cnc3c2NC=NC[C@H]3O)C(O)C1O (stereo not given in full) | > 450
38 | CNC(=S)N/N=C(C)\C(=N/NC(=S)NC)c1ccccc1 | > 100
39 | O=C(O)c1nc(-c2ccccn2)c(-c2ccccn2)nc1C(=O)O | 9.71
40 | O=[N+]([O-])c1ccc(-n2nnc(C3=NCCCN3)c2-c2ccc(Cl)cc2)cc1 | > 100
41 | COc1cc2c(cc1OC)C(O)[C@H](Br)C(C)(C)O2 (stereo not given in full) | > 100
42 | CCCCCC(C[N+]1(C)CCOCC1)C(=O)/C=C/c1ccccc1 (stereo not given) | 28.2
43 | CCOC(=O)C1(C(=O)OCC)CN(CC)CN(c2ccccc2)C1 | 31.7
44 | CC(=O)OCC1OC(Nc2ncc(-c3ccc(C)cc3)s2)C(OC(C)=O)C(OC(C)=O)C1OC(C)=O (stereo not given) | > 100

What follows are compounds tested on SN12C renal (assay: NCI anticancer screen, dose series, 48 h).

Row | SMILES | TGI [µM]
45 | CSC1=C(SC)SC(=C2SC3=C(SC(=C4SCCS4)S3)S2)S1 | > 100
46 | Cc1ccc2c(c1CCCC(C)(C)O)C(=O)C(=O)C(C(C)C)=C2O | > 100
47 | O=C1C(Cl)C(c2ccccc2)N1n1cnc2ccccc2c1=O (stereo not given) | > 100
48 | CN(C)C(=O)OCOC(=O)N(C)C | > 100
49 | CC(=O)Oc1ccccc1-c1cc2ccccc2oc1=O | > 100
50 | COC(=O)c1ccc(/C=C2\N=C(C)OC2=O)cc1 | > 100
51 | O=C1NC(=O)C(CCO)(c2ccccc2)C(=O)N1 | > 100
52 | Cn1ccc(C(=O)NCCOCCNC(=O)c2ccn(C)c(=O)c2O)c(O)c1=O | > 100
53 | CC1=C(Br)C(Br)=C(C)S1=O | 30.6
54 | C=CCn1c(=O)n(CC=C)c(=O)n(CC=C)c1=O | > 100
55 | CCCCN1C=CN2c3nc4cc(C)c(C)cc4n3C(C(=O)OC)=C(C(=O)OC)C12 (stereo not given) | > 100
56 | COC(=O)C(=C/c1ccc(OC)cc1)/C(C(=O)O)=C(/C)c1ccccc1 | > 100
57 | C=C1C(=O)O[C@H]2[C@H]1[C@@H](OC(=O)C=C(C)C)CC1=C[C@@H](C[C@@]3(C)O[C@@H]23)OC1=O | 12.7
58 | C=CCN1C[C@H](C)N([C@H](c2ccc(C(=O)N(CC)CCO)cc2)c2cccc(OC)c2)C[C@H]1C | > 100
59 | CCC1OC2C(CC=C(C)C)=C3OC(C)(O)C(C)(CC)C(OC(=O)c4ccccc4)C3=C3OC(=O)C=C1C32 (stereo not given) | 79
60 | CCOC(=O)C(N=Nc1ccc(S(N)(=O)=O)cc1)C(C)=O (stereo not given) | > 100

Row | SMILES | TGI [µM]
61 | Cc1ccc(C2CC(c3ccco3)=NN2c2ccccc2)o1 (stereo not given) | > 100
62 | C/C(=C1/CCCC2(N=NCC2c2ccccc2)C1=O)c1ccccc1 (stereo not given) | > 100
63 | CCN1CCN(c2ccc(Nc3ccnc4ccc5nn(C)nc5c34)cc2)CC1 | 42.3
64 | CC(C)CC1[C@@H](OCc2ccccc2)COS(=O)N1Cc1ccccc1 (stereo not given in full) | > 100
65 | OCC1OC(n2cnc3c2NC=NC[C@H]3O)C(O)C1O (stereo not given in full) | > 450
66 | CC(=O)OC1CC2c3cccc4c3C(CC2N(C)C1=O)CN4C(=O)c1ccccc1 (stereo not given) | 56.8
67 | COc1ccc2c3c1O[C@H]1C(O)CCC4(O)[C@@H](C2)NCC[C@]314 (stereo not given in full) | > 100
68 | O=C(O)c1nc(-c2ccccn2)c(-c2ccccn2)nc1C(=O)O | 24.6
69 | O=[N+]([O-])c1ccc(-n2nnc(C3=NCCCN3)c2-c2ccc(Cl)cc2)cc1 | > 100
70 | COc1cc2c(cc1OC)C(O)[C@H](Br)C(C)(C)O2 (stereo not given in full) | > 100
71 | CCCCCC(C[N+]1(C)CCOCC1)C(=O)/C=C/c1ccccc1 (stereo not given) | 28.6
72 | COc1ccc2c(c1C)C(=O)C(O)(CC=C(C)C)O2 (stereo not given) | > 100
73 | CCOC(=O)C1(C(=O)OCC)CN(CC)CN(c2ccccc2)C1 | > 100
74 | Cc1cccc2c1[C@]13OC(C)[C@]4(C)CC5OC(=O)[C@@]1(C)[C@@H]5[C@]34C(=O)O2 (stereo not given in full) | > 100
75 | CC(=O)OCC1OC(Nc2ncc(-c3ccc(C)cc3)s2)C(OC(C)=O)C(OC(C)=O)C1OC(C)=O (stereo not given) | 62.2

These compounds were tested on SNB-19 CNS (assay: NCI anticancer screen, dose series, 48 h).

Row | SMILES | TGI [µM]
76 | CSC1=C(SC)SC(=C2SC3=C(SC(=C4SCCS4)S3)S2)S1 | > 100
77 | Cc1ccc2c(c1CCCC(C)(C)O)C(=O)C(=O)C(C(C)C)=C2O | > 100
78 | O=C1C(Cl)C(c2ccccc2)N1n1cnc2ccccc2c1=O (stereo not given) | > 100
79 | CN(C)C(=O)OCOC(=O)N(C)C | > 100
80 | CC(=O)Oc1ccccc1-c1cc2ccccc2oc1=O | > 100
81 | COC(=O)c1ccc(/C=C2\N=C(C)OC2=O)cc1 | > 100
82 | Cc1ccc2nc(-c3ccc(N)c(I)c3)sc2c1 | 86.4
83 | O=C1NC(=O)C(CCO)(c2ccccc2)C(=O)N1 | > 100
84 | COc1ccc2c(c1)CC[C@@H]1[C@@H]2CC[C@]2(C)C(=O)/C(=C/c3ccc(OC)c(OC)c3)C[C@@H]12 | > 100
85 | Cn1ccc(C(=O)NCCOCCNC(=O)c2ccn(C)c(=O)c2O)c(O)c1=O | > 100
86 | CC1=C(Br)C(Br)=C(C)S1=O | 63.7
87 | C=CCn1c(=O)n(CC=C)c(=O)n(CC=C)c1=O | > 100
88 | CCCCN1C=CN2c3nc4cc(C)c(C)cc4n3C(C(=O)OC)=C(C(=O)OC)C12 (stereo not given) | > 100
89 | COC(=O)C(=C/c1ccc(OC)cc1)/C(C(=O)O)=C(/C)c1ccccc1 | > 100
90 | C=C1C(=O)O[C@H]2[C@H]1[C@@H](OC(=O)C=C(C)C)CC1=C[C@@H](C[C@@]3(C)O[C@@H]23)OC1=O | 55.3
91 | C=CCN1C[C@H](C)N([C@H](c2ccc(C(=O)N(CC)CCO)cc2)c2cccc(OC)c2)C[C@H]1C | > 100
92 | CCC1OC2C(CC=C(C)C)=C3OC(C)(O)C(C)(CC)C(OC(=O)c4ccccc4)C3=C3OC(=O)C=C1C32 (stereo not given) | 94.6
93 | CCOC(=O)C(N=Nc1ccc(S(N)(=O)=O)cc1)C(C)=O (stereo not given) | > 100

Row | SMILES | TGI [µM]
94 | Cc1ccc(C2CC(c3ccco3)=NN2c2ccccc2)o1 (stereo not given) | > 100
95 | C/C(=C1/CCCC2(N=NCC2c2ccccc2)C1=O)c1ccccc1 (stereo not given) | > 100
96 | CN1CCOC1(C)CO (stereo not given) | > 100
97 | CCN1CCN(c2ccc(Nc3ccnc4ccc5nn(C)nc5c34)cc2)CC1 | 43.9
98 | CC(C)CC1[C@@H](OCc2ccccc2)COS(=O)N1Cc1ccccc1 (stereo not given in full) | > 100
99 | OCC1OC(n2cnc3c2NC=NC[C@H]3O)C(O)C1O (stereo not given in full) | > 450
100 | CC(=O)OC1CC2c3cccc4c3C(CC2N(C)C1=O)CN4C(=O)c1ccccc1 (stereo not given) | > 100
101 | COc1ccc2c3c1O[C@H]1C(O)CCC4(O)[C@@H](C2)NCC[C@]314 (stereo not given in full) | > 100
102 | CNC(=S)N/N=C(C)\C(=N/NC(=S)NC)c1ccccc1 | > 100
103 | O=C(O)c1nc(-c2ccccn2)c(-c2ccccn2)nc1C(=O)O | 19.1
104 | O=[N+]([O-])c1ccc(-n2nnc(C3=NCCCN3)c2-c2ccc(Cl)cc2)cc1 | > 100
105 | COc1cc2c(cc1OC)C(O)[C@H](Br)C(C)(C)O2 (stereo not given in full) | > 100
106 | CCCCCC(C[N+]1(C)CCOCC1)C(=O)/C=C/c1ccccc1 (stereo not given) | 24.5
107 | COc1ccc2c(c1C)C(=O)C(O)(CC=C(C)C)O2 (stereo not given) | > 100
108 | CCOC(=O)C1(C(=O)OCC)CN(CC)CN(c2ccccc2)C1 | > 100
109 | Cc1cccc2c1[C@]13OC(C)[C@]4(C)CC5OC(=O)[C@@]1(C)[C@@H]5[C@]34C(=O)O2 (stereo not given in full) | > 100
110 | CC(=O)OCC1OC(Nc2ncc(-c3ccc(C)cc3)s2)C(OC(C)=O)C(OC(C)=O)C1OC(C)=O (stereo not given) | > 100
